In US12447147B2, “Methods of treating, ameliorating, and/or preventing cancer using pyrvinium compositions” (Thomas Jefferson University, priority 2019, dated 2025):
Read-outs that look alike come from different tables or passages of the source.

Legend:
VEGF DNA binding to HuR = VEGF DNA binding to HuR (Homo sapiens, UniProt Q15717); test: Inhibition of VEGF DNA binding to HuR; settings: for Mean Max % I: mean of n1 and n2; for Max % I, n1: replicate n1; for Max % I, n2: replicate n2
COX2 DNA binding to HuR = COX2 DNA binding to HuR (Homo sapiens, UniProt Q15717); test: Inhibition of COX2 DNA binding to HuR; settings: for Mean Max % I: mean of n1 and n2; for Max % I, n1: replicate n1; for Max % I, n2: replicate n2
COX2 DNA binding to HuR, sequence (Q15717 whole entry): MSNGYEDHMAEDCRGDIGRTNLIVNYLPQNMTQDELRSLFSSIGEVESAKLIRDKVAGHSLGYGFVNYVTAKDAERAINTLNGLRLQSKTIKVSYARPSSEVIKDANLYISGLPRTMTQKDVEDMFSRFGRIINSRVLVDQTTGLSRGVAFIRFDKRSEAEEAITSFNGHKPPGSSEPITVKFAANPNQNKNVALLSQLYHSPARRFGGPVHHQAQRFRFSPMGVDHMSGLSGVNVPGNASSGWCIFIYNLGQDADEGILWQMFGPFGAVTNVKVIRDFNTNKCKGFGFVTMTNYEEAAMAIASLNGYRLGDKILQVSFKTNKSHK

[1] = target: HuR binding to target mRNA VEGF (Homo sapiens, UniProt Q15717); test: Inhibition of HuR binding to target mRNA VEGF; settings: given as a range
HuR binding to target mRNA VEGF, sequence (Q15717 whole entry): as above

[2] = target: HuR binding to target mRNA COX2 (Homo sapiens, UniProt Q15717); test: Inhibition of HuR binding to target mRNA COX2; settings: given as a range
HuR binding to target mRNA COX2, sequence (Q15717 whole entry): as above

HS766T = test: 5 day viability assay (Pico Green), HS766T; assay type: cell-based; settings: 120 h
Experimental: (§1) The efficacy of pyrvinium pamoate was determined in a panel of PDA cell lines.

[3] = Synergy with CDK4/6 inhibitors (FIGS. 13A-13F)
CFPAC = test: 5 day viability assay (Pico Green), CFPAC; assay type: cell-based; settings: 120 h
Experimental: as §1

MIA-PaCa2 = test: 5 day viability assay (Pico Green), MIA-PaCa2; assay type: cell-based; settings: Homo sapiens, MIA PaCa-2, 120 h
Experimental: as §1

PDX-X139 = test: 5 day viability assay (Pico Green), PDX cell line; assay type: cell-based; settings: 120 h
Text: (§2) KPC mice have both an activating KRAS mutation (KRAS is mutated in up to 90% of PDA) and a loss of P53 driven by a pancreas specific Cre promoter. The KTC organoid model is derived from a GEMM that has a driver KRAS mutation and greater than 2-fold overexpression of HuR, specifically in the pancreas.

MIA-PaCa2 cells = test: MIA-PaCa2 flank tumor growth in mice; assay type: in vivo, nude mice; settings: for tumor growth: 1 mg/kg IP 3 times weekly vs vehicle, MIA-PaCa2 flank tumors started at 100 mm^3
Text: as §2

KTC Organoids = test: 5 day viability assay (Pico Green), KTC organoids; assay type: cell-based; settings: Mus musculus, 120 h
Text: as §2

Panc-1 = test: 5 day viability assay (Pico Green), Panc-1; assay type: cell-based; settings: Homo sapiens, 120 h
Experimental: as §1

cyclin Dl = test: Cyclin D1 knockdown (FIG. 12)
[4] = In vivo models, pyrvinium pamoate and ademaciclib (FIGS. 14A-14C)
[5] = oral tablets or suspensions; urine up to 96 hours after each dose; cited from earlier work
PDA = test: Tumor volume, PARP inhibitor with or without shHuR; assay type: in vivo
Text: HuR (ELAVL1) is an RNA binding protein that, upon exposure to a variety of intrinsic cancer related stressors, binds to a network of pro-survival mRNAs leading to an increase in their stability and translation. […] HuR CRISPR knockout PDA cell lines have a xenograft lethal phenotype. […] HuR is also important for oxaliplatin resistance in PDA. Utilizing a tumor microarray (TMA) from resected patient samples of PDA, it was discovered that 79% (n=80) of patients were positive for cytoplasmic HuR, with little to no cytoplasmic localization detected in adjacent normal tissues. HuR is a driver of chemoresistance in PDA and thus a prime target for re-sensitizing PDA cells to current therapies. While several compounds have been investigated as HuR inhibitors, to date there are no clinically viable HuR inhibitors.

[6] = mean of n1 and n2, read-out: Mean IC50
[7] = replicate n1, read-out: IC50, n1
[8] = replicate n2, read-out: IC50, n2

VEGF DNA binding to HuR, sequence (Q15717 whole entry): as above

Compound	Mean Max % I (VEGF DNA binding to HuR) [%]	IC50 (VEGF DNA binding to HuR; [6]) [nM]	Max % I, n1 (VEGF DNA binding to HuR) [%]	IC50 (VEGF DNA binding to HuR; [7]) [nM]	Max % I, n2 (VEGF DNA binding to HuR) [%]	IC50 (VEGF DNA binding to HuR; [8]) [nM]	Mean Max % I (COX2 DNA binding to HuR) [%]	IC50 (COX2 DNA binding to HuR; [6]) [nM]	Max % I, n1 (COX2 DNA binding to HuR) [%]	IC50 (COX2 DNA binding to HuR; [7]) [nM]	Max % I, n2 (COX2 DNA binding to HuR) [%]	IC50 (COX2 DNA binding to HuR; [8]) [nM]	also measured
Cc1cccc2c3c(ccc12)C1=C(C(=O)C3=O)[C@@H](C)CO1 [DHTS]	92.9	1500	86.5	1070	99.2	2120	94.0	599	100.0	1080	88.1	332	–
Nc1ccn([C@@H]2O[C@H](CO)[C@@H](O)C2(F)F)c(=O)n1 [Gemcitabine]	–	> 20000	–	> 20000	–	> 20000	–	> 20000	100.0	> 20000	100.0	> 20000	IC50 [1]: > 20 µM; IC50 [2]: > 20 µM
Cc1occ2c1C(=O)c1c(O)ccc(O)c1C2 [MS444]	99.8	16	100.0	15	99.5	17	100.0	33	100.0	33	100.0	32	–
O=C1[O][Pt]2([NH][C@@H]3CCCC[C@H]3[NH]2)[O]C1=O [Oxaliplatin]	–	> 20000	–	> 20000	–	> 20000	–	> 20000	100.0	> 20000	100.0	> 20000	IC50 [1]: > 20 µM; IC50 [2]: > 20 µM
Cc1cc(/C=C/c2ccc3cc(N(C)C)ccc3[n+]2C)c(C)n1-c1ccccc1 [PP, pyrvinium pamoate]	86.8	149	87.2	187	86.5	118	89.3	198	88.8	340	89.8	115	IC50 (HS766T): 93 nM; IC50 [1]: 0.203 to 0.416 µM; effect with CDK4/6 inhibitors [3]: synergistic effect; IC50 (CFPAC): 21 nM; IC50 (MIA-PaCa2): 40 nM; IC50 (PDX-X139): 9 nM; IC50 [2]: 0.207 to 0.453 µM; tumor growth (MIA-PaCa2 cells): reduced tumor growth; tumor growth (MIA-PaCa2 cells; listed as pyrvinium pamoate): significant decrease; mouse weights (MIA-PaCa2 cells; 1 mg/kg IP 3 times weekly, MIA-PaCa2 tumor-bearing mice): no changes; IC50 (KTC Organoids): 93 nM; IC50 (Panc-1): 92 nM; knockdown of cyclin Dl (cyclin Dl): causes a knockdown; efficacy in in vivo models [4]: efficacious; urine levels of pyrvinium vs the 24 hr prior to administration [5]: not significantly different
CCN1CCN(Cc2ccc(Nc3ncc(F)c(-c4cc(F)c5nc(C)n(C(C)C)c5c4)n3)nc2)CC1 [ademaciclib]	–	–	–	–	–	–	–	–	–	–	–	–	efficacy in in vivo models [4]: efficacious
O=C(c1cc(Cc2n[nH]c(=O)c3ccccc23)ccc1F)N1CCN(C(=O)C2CC2)CC1 [olaparib]	–	–	–	–	–	–	–	–	–	–	–	–	reduction in tumor volume (PDA; combined with shHuR (DOX-inducible)): 9.3 fold; reduction in tumor volume (PDA; olaparib alone): 5.6 fold
Verteporfin	74.7	144	77.0	167	72.4	124	92.7	29	92.9	28	92.4	30	–

Second part, led by results:

Mean Max % I (VEGF DNA binding to HuR) [%]	IC50 (VEGF DNA binding to HuR; [6]) [nM]	Max % I, n1 (VEGF DNA binding to HuR) [%]	IC50 (VEGF DNA binding to HuR; [7]) [nM]	Max % I, n2 (VEGF DNA binding to HuR) [%]	IC50 (VEGF DNA binding to HuR; [8]) [nM]	Mean Max % I (COX2 DNA binding to HuR) [%]	IC50 (COX2 DNA binding to HuR; [6]) [nM]	Max % I, n1 (COX2 DNA binding to HuR) [%]	IC50 (COX2 DNA binding to HuR; [7]) [nM]	Max % I, n2 (COX2 DNA binding to HuR) [%]	IC50 (COX2 DNA binding to HuR; [8]) [nM]	Compound	also measured
78.7	1290	85.6	1280	71.9	1300	81.6	674	81.1	593	82.1	767	COc1ccc(C(CC(=O)N2CCCC2)c2c(OC)cc(OC)c3c(-c4ccccc4)cc(=O)oc23)cc1 (stereo not drawn) [CMLD2]	–
78.3	5410	–	5050	74.9	5790	83.8	2950	–	2220	84.1	3910	CC(=O)O[C@H]1C(=O)[C@@]2(C)[C@H]([C@H](OC(=O)c3ccccc3)[C@]3(O)C[C@H](OC(=O)[C@H](O)[C@@H](NC(=O)c4ccccc4)c4ccccc4)C(C)=C1C3(C)C)[C@]1(OC(C)=O)CO[C@@H]1C[C@@H]2O [Paclitaxel]	–
100.0	7380	100.0	6100	100.0	8930	100.0	5470	100.0	4080	100.0	7340	Dihydro-tashinone	–
